Experimental findings from PubChem BioAssay (NCI) are described below.

Test systems include IGROV1 ovarian; M14 melanoma; NCI-H226 lung; OVCAR-3 ovarian; SF-268 CNS; SK-MEL-2 melanoma; SK-MEL-28 melanoma; SNB-19 CNS; TK-10 renal; UO-31 renal.
What all share (test): NCI tumour cell line growth inhibition, 48 h

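A five-concentration, 48-hour dose response in 96-well plates underlies each endpoint, interpolated linearly between surrounding concentrations. GI50: concentration for 50% inhibition of growth. TGI is the concentration that stops growth completely.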 Where a SMILES comes first, the peptide text is derived from it. [ ]: non-standard residue; d: D form. The star is where a group is joined. dTle = CC(C)(C)[C@@H](N)C(=O)O; 4Abz = Nc1ccc(C(=O)O)cc1; NHOH = ON*

With `NS(=O)(=O)NCCNc1nonc1C(=Nc1ccc(F)c(Br)c1)NO`, the GI50 is 52.3 µM with IGROV1 ovarian; 28.1 µM with M14 melanoma; 47.7 µM with NCI-H226 lung; 34.6 µM in the test with OVCAR-3 ovarian; 38.8 µM in the test on SF-268 CNS; 27.8 µM in the test on SK-MEL-2 melanoma. The GI50 in the test on SK-MEL-28 melanoma was 48.3 µM; in the test with SNB-19 CNS it was 48.2 µM; with TK-10 renal, 29.8 µM; with UO-31 renal, 24.8 µM. The TGI was more than 100 µM in the test with IGROV1 ovarian; more than 100 µM in the test on M14 melanoma; more than 100 µM in the test with NCI-H226 lung; more than 100 µM in the test with OVCAR-3 ovarian; more than 100 µM with SF-268 CNS; 97 µM in the test on SK-MEL-2 melanoma. Moreover, the TGI with SK-MEL-28 melanoma, with SNB-19 CNS, with TK-10 renal and in the test with UO-31 renal was more than 100 µM in each case.
As for `C[C@@H](NC(=O)[C@H](NC(=O)[C@@H]1CCCN1C(=O)CNC(=O)c1ccc(N)cc1)C(C)(C)C)C(=O)NO` (H-[4Abz]GP[dTle][dA]-{NHOH}), the GI50 with IGROV1 ovarian, in the test on M14 melanoma, with NCI-H226 lung, in the test on OVCAR-3 ovarian, in the test with SF-268 CNS and in the test with SK-MEL-2 melanoma was more than 100 µM throughout. Further, the GI50 in the test with SK-MEL-28 melanoma, with SNB-19 CNS, in the test on TK-10 renal and with UO-31 renal was more than 100 µM throughout. Also, the TGI in the test on IGROV1 ovarian, in the test on M14 melanoma, in the test on NCI-H226 lung, in the test with OVCAR-3 ovarian, with SF-268 CNS and in the test with SK-MEL-2 melanoma was more than 100 µM each time. In addition, the TGI in the test with SK-MEL-28 melanoma, in the test on SNB-19 CNS, with TK-10 renal and in the test with UO-31 renal was more than 100 µM throughout.
Consider `O=C1/C(=C/c2ccc(Cl)cc2)CCC/C1=C\c1ccc(Cl)cc1`, for which the GI50 in the test with IGROV1 ovarian was 4.13 µM; with M14 melanoma, 3.04 µM; in the test with NCI-H226 lung it was 5.18 µM; in the test with OVCAR-3 ovarian, 3.03 µM; with SF-268 CNS it was 3.24 µM; with SK-MEL-2 melanoma it was more than 100 µM. The GI50 in the test with SK-MEL-28 melanoma was 5.8 µM; in the test with SNB-19 CNS it was 6.69 µM; in the test on TK-10 renal it was 6.81 µM; in the test with UO-31 renal, 10.8 µM. Also, the TGI in the test with IGROV1 ovarian is more than 100 µM; with M14 melanoma it was 8.7 µM; in the test on NCI-H226 lung, more than 100 µM; in the test on OVCAR-3 ovarian it was 7.77 µM; in the test on SF-268 CNS, 12.7 µM; in the test with SK-MEL-2 melanoma, more than 100 µM. The TGI with SK-MEL-28 melanoma, in the test with SNB-19 CNS, with TK-10 renal and with UO-31 renal was more than 100 µM in each case.
For the compound `CC(=O)O[C@@]1(C)[C@@H](C)C(=O)O[C@@H]2CCN3CC=C(COC(=O)[C@]1(C)O)[C@H]23`, the TGI in the test on IGROV1 ovarian, in the test on M14 melanoma, in the test on NCI-H226 lung, in the test on OVCAR-3 ovarian, with SF-268 CNS and with SK-MEL-2 melanoma was more than 100 µM throughout. The TGI with SK-MEL-28 melanoma, with SNB-19 CNS, in the test on TK-10 renal and in the test with UO-31 renal was more than 100 µM throughout.
For the compound `CC1=C(C(=O)Nc2cc(Cl)c3[nH]ncc3c2)C(c2ccc(C(F)(F)F)cc2)CC(=O)N1` (stereo not given), the GI50 with IGROV1 ovarian was more than 25 µM; in the test on M14 melanoma, more than 25 µM; in the test with NCI-H226 lung, 2.11 µM; in the test with OVCAR-3 ovarian it was more than 25 µM; with SF-268 CNS it was 11.7 µM; in the test with SK-MEL-2 melanoma, more than 25 µM. Besides, the GI50 was more than 25 µM in the test on SK-MEL-28 melanoma, more than 25 µM with SNB-19 CNS, more than 17.6 µM in the test with TK-10 renal and 2 µM in the test with UO-31 renal. The TGI in the test with IGROV1 ovarian, in the test on M14 melanoma, in the test with NCI-H226 lung, in the test with OVCAR-3 ovarian, in the test on SF-268 CNS and in the test with SK-MEL-2 melanoma was more than 25 µM in each case. Also, the TGI in the test with SK-MEL-28 melanoma, with SNB-19 CNS, in the test with TK-10 renal and with UO-31 renal was more than 25 µM each time.
For `Cc1cc(N2CCOCC2)nc(N(CCCNc2ccnc3cc(Cl)ccc23)Cc2ccco2)n1`, the GI50 in the test with IGROV1 ovarian was 2.18 µM; in the test with M14 melanoma, 1.86 µM; with NCI-H226 lung, 12 µM; with OVCAR-3 ovarian, 1.81 µM; in the test with SF-268 CNS it was 3.43 µM; in the test on SK-MEL-2 melanoma, 2.52 µM. The GI50 was 2.29 µM in the test on SK-MEL-28 melanoma, 3.81 µM with SNB-19 CNS, 3.3 µM with TK-10 renal and 1.61 µM in the test on UO-31 renal. In addition, the TGI in the test with IGROV1 ovarian was 11.3 µM; in the test with M14 melanoma it was 4.22 µM; in the test with NCI-H226 lung, 33.9 µM; in the test on OVCAR-3 ovarian, 4.49 µM; with SF-268 CNS, 16.1 µM; in the test on SK-MEL-2 melanoma, 6.79 µM. In addition, the TGI in the test with SK-MEL-28 melanoma was determined as 6.66 µM; in the test on SNB-19 CNS, 15.4 µM; with TK-10 renal, 12.3 µM; with UO-31 renal, 6.77 µM.
Turning to `Oc1ccc(C2c3ccccc3Oc3ccccc32)c2cccnc12`, the GI50 in the test with IGROV1 ovarian was 1.62 µM; in the test on M14 melanoma it was 1.34 µM; in the test on NCI-H226 lung, 1.23 µM; with OVCAR-3 ovarian, 2.45 µM; in the test on SF-268 CNS it was 1.29 µM; in the test on SK-MEL-2 melanoma it was 2.31 µM. For the same compound, the GI50 in the test on SK-MEL-28 melanoma was 5.12 µM; in the test on SNB-19 CNS it was 1.85 µM; in the test on TK-10 renal it was 1.09 µM; with UO-31 renal, 1.21 µM. Also, the TGI was more than 100 µM in the test on IGROV1 ovarian; 4.21 µM in the test on M14 melanoma; 7.92 µM with NCI-H226 lung; more than 100 µM in the test on OVCAR-3 ovarian; more than 100 µM in the test on SF-268 CNS; 69.5 µM in the test with SK-MEL-2 melanoma. The TGI is more than 100 µM in the test on SK-MEL-28 melanoma, more than 100 µM with SNB-19 CNS, more than 100 µM in the test on TK-10 renal and 19.7 µM in the test with UO-31 renal.
As to `CCn1c(-c2nonc2N)nc2c(C#CC(C)(C)O)ncc(OC[C@H]3CCCNC3)c21`, the GI50 in the test with IGROV1 ovarian was 0.0876 µM; in the test on M14 melanoma, 14.8 µM; with NCI-H226 lung it was 21.1 µM; with OVCAR-3 ovarian it was 6.92 µM; with SF-268 CNS, 16.1 µM; in the test on SK-MEL-2 melanoma it was 7.57 µM. For the same compound, the GI50 is 11.7 µM in the test on SK-MEL-28 melanoma, 15.1 µM with SNB-19 CNS, 2.03 µM in the test on TK-10 renal and more than 38.7 µM in the test on UO-31 renal. The TGI in the test with IGROV1 ovarian is 23.2 µM; with M14 melanoma, 37.7 µM; in the test with NCI-H226 lung, 52.2 µM; in the test with OVCAR-3 ovarian it was 25.9 µM; with SF-268 CNS, 37.4 µM; in the test on SK-MEL-2 melanoma, 23 µM. The TGI in the test with SK-MEL-28 melanoma was 27.1 µM; in the test on SNB-19 CNS, 42.8 µM; in the test on TK-10 renal it was 42.6 µM; in the test on UO-31 renal it was more than 100 µM.
